According to PMC8552062, “Contributions of UDP-Glucuronosyltransferases to Human Hepatic and Intestinal Metabolism of Ticagrelor and Inhibition of UGTs and Cytochrome P450 Enzymes by Ticagrelor and its Glucuronidated Metabolite” (Frontiers in Pharmacology, 2021):

Experiments:
Type in all cases: in vitro ADME
Design in all cases: tissue XenoTech LLC; host or cells: pooled human liver microsomes
UGT1A1 = molecular target: T1, UGT1A1 (Homo sapiens, UniProt P22309); test: UGT1A1 inhibition in HLM (SN-38 glucuronidation); settings: for IC50: UGT1A1, SN-38 glucuronide formation in HLM
T1 sequence (P22309 26-533): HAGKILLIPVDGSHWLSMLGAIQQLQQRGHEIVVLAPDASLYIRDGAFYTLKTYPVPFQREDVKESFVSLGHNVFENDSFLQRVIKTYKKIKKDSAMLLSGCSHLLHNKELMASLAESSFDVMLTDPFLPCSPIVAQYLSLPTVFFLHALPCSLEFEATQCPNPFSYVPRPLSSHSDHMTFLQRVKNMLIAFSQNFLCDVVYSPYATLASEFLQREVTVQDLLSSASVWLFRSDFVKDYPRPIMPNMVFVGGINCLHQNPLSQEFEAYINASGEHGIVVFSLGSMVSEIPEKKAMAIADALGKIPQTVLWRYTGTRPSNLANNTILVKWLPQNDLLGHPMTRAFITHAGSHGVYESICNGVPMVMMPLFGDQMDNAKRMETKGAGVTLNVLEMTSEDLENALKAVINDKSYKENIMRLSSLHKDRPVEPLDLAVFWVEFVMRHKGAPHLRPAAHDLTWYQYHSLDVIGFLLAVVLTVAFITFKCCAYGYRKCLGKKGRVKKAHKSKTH
Experimental: (§1) To assess drug-drug interactions (DDIs) potential caused by ticagrelor and ticagrelor-O-Glu through the inhibition of the major human UGTs enzymes, selective UGT probe substrates were co-incubated with ticagrelor or ticagrelor-O-Glu in HLM. The formation of metabolites, SN-38 glucuronide, chenodeoxycholic acid 24-acyl-β-D-glucuronide, trifluoperazine N-glucuronide, N-Acetyl serotonin glucuronide, mycophenolic acid glucuronide and 3′-azide-3′-deoxythymidine β-D-glucuronide, which could reflect the enzyme activities of UGT1A1, UGT1A3, UGT1A4, UGT1A6, UGT1A9 and UGT2B7, respectively, were quantified using LC-MS/MS. Three different concentrations of ticagrelor or ticagrelor-O-Glu (1, 10 and 100 μM) were added to the incubation system in the presence of selective UGT probe substrates (SN-38, chenodeoxycholic acid, trifluoperazine, N-Acetyl serotonin, mycophenolic acid and 3′-azide-3′-deoxythymidine), respectively. The assays were performed as described above. The control was treated with a vehicle solvent only. A triple determination was performed.
(§2) The percent inhibition relative to the control was calculated to indicate the UGTs or CYPs inhibition. For inhibition exceeding 50% of the control activity, nonlinear regression analysis was used to estimate the IC50 values using the GraphPad Prism 6 (GraphPad Software Inc., CA, United States).

UGT1A6 = molecular target: T2, UGT1A6 (Homo sapiens, UniProt P19224); test: UGT1A6 inhibition in HLM (N-Acetyl serotonin glucuronidation); settings: for IC50: UGT1A6, N-Acetyl serotonin glucuronide formation in HLM; for inhibition at 100 µM: human, human liver microsomes (HLM), probe N-Acetyl serotonin, HLM, 100 μM test compound
T2 sequence (P19224 27-532): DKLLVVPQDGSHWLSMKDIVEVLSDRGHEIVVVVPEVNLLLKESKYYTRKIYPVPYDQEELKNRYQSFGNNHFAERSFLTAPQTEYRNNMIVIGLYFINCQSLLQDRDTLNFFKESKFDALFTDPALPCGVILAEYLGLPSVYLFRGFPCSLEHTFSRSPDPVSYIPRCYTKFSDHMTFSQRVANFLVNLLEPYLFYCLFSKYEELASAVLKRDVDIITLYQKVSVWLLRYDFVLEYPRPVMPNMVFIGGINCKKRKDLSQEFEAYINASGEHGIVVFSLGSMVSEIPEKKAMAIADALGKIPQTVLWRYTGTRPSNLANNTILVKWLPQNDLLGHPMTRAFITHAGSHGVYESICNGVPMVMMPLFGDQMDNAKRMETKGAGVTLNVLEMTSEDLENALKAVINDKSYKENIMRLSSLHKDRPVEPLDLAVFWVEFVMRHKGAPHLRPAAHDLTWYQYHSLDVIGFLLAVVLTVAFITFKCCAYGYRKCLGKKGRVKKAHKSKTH
Experimental: as §1, §2

UGT1A9 = molecular target: T3, UGT1A9 (Homo sapiens, UniProt O60656); test: UGT1A9 inhibition in HLM (mycophenolic acid glucuronidation); settings: for IC50: UGT1A9, mycophenolic acid glucuronide formation in HLM; for inhibition at 100 µM: human, human liver microsomes (HLM), probe mycophenolic acid, HLM, 100 μM test compound
T3 sequence (O60656 26-530): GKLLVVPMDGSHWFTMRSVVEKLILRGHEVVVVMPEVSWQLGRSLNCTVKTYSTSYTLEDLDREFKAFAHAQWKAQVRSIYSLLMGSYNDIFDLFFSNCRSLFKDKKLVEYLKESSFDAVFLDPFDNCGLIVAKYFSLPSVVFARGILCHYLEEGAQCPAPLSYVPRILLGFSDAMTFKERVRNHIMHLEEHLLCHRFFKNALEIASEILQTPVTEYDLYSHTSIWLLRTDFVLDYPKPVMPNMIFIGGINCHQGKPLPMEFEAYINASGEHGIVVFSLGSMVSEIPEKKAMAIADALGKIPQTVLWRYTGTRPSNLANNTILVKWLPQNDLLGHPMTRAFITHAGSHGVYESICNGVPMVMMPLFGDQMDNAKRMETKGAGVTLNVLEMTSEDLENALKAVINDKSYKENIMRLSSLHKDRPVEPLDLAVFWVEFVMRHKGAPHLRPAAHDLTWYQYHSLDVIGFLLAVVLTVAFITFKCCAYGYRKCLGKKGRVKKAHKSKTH
Experimental: as §1, §2

UGT2B7 = molecular target: T4, UGT2B7 (Homo sapiens, UniProt P16662); test: UGT2B7 inhibition in HLM (3′-azide-3′-deoxythymidine glucuronidation); settings: for IC50: UGT2B7, 3′-azide-3′-deoxythymidine β-D-glucuronide formation in HLM; for inhibition at 100 µM: human, human liver microsomes (HLM), probe 3′-azide-3′-deoxythymidine, HLM, 100 μM test compound
T4 sequence (P16662 24-529): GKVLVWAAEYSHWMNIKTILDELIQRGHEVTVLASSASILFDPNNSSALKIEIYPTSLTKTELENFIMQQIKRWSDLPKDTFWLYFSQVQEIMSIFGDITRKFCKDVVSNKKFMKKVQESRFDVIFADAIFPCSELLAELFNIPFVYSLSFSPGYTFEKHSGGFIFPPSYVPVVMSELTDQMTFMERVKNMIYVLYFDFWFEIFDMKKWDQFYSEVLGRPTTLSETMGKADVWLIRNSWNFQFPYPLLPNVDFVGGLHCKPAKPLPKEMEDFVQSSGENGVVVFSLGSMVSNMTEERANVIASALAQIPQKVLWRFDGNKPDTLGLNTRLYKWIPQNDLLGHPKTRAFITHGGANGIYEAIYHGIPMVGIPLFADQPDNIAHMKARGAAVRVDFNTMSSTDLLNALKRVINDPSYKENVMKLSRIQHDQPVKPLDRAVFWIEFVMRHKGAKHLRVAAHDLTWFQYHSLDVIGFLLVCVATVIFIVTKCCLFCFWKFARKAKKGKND
Experimental: as §1, §2

CCCSc1nc(N[C@@H]2C[C@H]2c2ccc(F)c(F)c2)c2nnn([C@@H]3C[C@H](OCCO)[C@@H](O)[C@H]3O)c2n1 [Ticagrelor]
IC50 (UGT1A1): ~100 µM
inhibition at 100 µM (UGT1A1; human, human liver microsomes (HLM), probe SN-38, HLM, 100 μM test compound): 56.8%
IC50 (UGT1A6): > 100 µM
inhibition at 100 µM (UGT1A6): 12.7%
IC50 (UGT1A9): > 100 µM
inhibition at 100 µM (UGT1A9): 13.3%
IC50 (UGT2B7): > 100 µM
inhibition at 100 µM (UGT2B7): 39%

CCCSc1nc(N[C@@H]2C[C@H]2c2ccc(F)c(F)c2)c2nnn([C@@H]3C[C@H](OCCO[C@@H]4O[C@H](C(=O)O)[C@@H](O)[C@H](O)[C@H]4O)[C@@H](O)[C@H]3O)c2n1 [Ticagrelor-O-Glu, ticagrelor-O-glucuronide]
inhibitory effect on UGT1A1 (UGT1A1; HLM, concentration up to 100 μM): no significant inhibitory effects
IC50 (UGT1A1): > 100 µM
IC50 (UGT1A6): > 100 µM
inhibition at 100 µM (UGT1A6): 28.5%
IC50 (UGT1A9): ~100 µM
inhibition at 100 µM (UGT1A9): 61.4%
IC50 (UGT2B7): > 100 µM
inhibition at 100 µM (UGT2B7): 30.7%
